Test results from publication PMC8216263 (Pharmaceutical Biology, 2021).

Key:
[1] = Single- and multiple-dose plasma pharmacokinetics of GA and PCA after oral RLQ in healthy subjects; type: in vivo, human; conditions: LC-MS/MS after oral RLQ
Procedure: The study protocol was approved by the Ethics Committee of the Second Affiliated Hospital of Tianjin University of Traditional Chinese Medicine. […] Subjects were offered standard meals at 4 and 10 h after dosing. Water was not permitted during the hour before and the hour after dosing, except for 240 mL administered with dosing; additional water intake was allowed at all other times.
In the single-dose study, 8 g of RLQ was administered orally on day 1. A 7-d washout time was designed between single-dose and multiple-dose pharmacokinetic studies. In the multiple-dose study, subjects received multiple doses of RLQ (8 g, t.i.d.) for seven consecutive days from day 8 to day 14 and a single dose of RLQ (8 g) on the morning of day 15. […] Additional pre-dose samples were collected in the morning on days 12, 13 and 14. […] All samples were stored at −80 °C until analysis.
All analytes were extracted from plasma and urine samples by simple protein precipitation extraction method using acetonitrile. Briefly, 5 µL of internal standard solution and 300 μL of acetonitrile were added to the spiked blank matrix (100 μL) and vortexed for 3 min and then centrifuged at 13,000 × g for 10 min. The supernatant was transferred and dried using a flow of nitrogen. The residue was re-dissolved in 100 µL of 10% methanol solution containing 0.1% formic acid. An aliquot of 5 µL solution was injected into the LC-MS/MS system for analysis.
The chromatographic separation was performed on an Acquity Ultra Performance LC instrument (Waters, Milford, MA) with a gradient programme in an ACQUITY UPLC BEH C18 column (2.1 mm × 100 mm, 1.7 μm). […] The injection volume was 2 µL. The mass spectrometry analysis was performed on an AB Sciex Triple Quad 5500 MS (Framingham, MA) equipped with an ESI source.
The peak plasma concentration (Cmax) and time to reach the peak plasma concentration (Tmax) were calculated from the actual plasma concentration data. The area under the plasma concentration-time curve from zero to the last measurable concentration (AUC0–t) was calculated via the linear trapezoidal rule. AUC0–∞ was calculated using the following formula: AUC0–∞ = AUC0–t + Ct/ke, where Ct is the last plasma concentration measured. […] The accumulation index was calculated as AUCss/AUC0–t.

BCRP = biological target: T1, BCRP (Homo sapiens, UniProt Q9UNQ0); set-up: method as in Ebert et al. 2006; conditions: Caco-2 cells pre-treated with quercetin, ref Ebert et al. 2006; cited from earlier work
T1 sequence (Q9UNQ0 1-655): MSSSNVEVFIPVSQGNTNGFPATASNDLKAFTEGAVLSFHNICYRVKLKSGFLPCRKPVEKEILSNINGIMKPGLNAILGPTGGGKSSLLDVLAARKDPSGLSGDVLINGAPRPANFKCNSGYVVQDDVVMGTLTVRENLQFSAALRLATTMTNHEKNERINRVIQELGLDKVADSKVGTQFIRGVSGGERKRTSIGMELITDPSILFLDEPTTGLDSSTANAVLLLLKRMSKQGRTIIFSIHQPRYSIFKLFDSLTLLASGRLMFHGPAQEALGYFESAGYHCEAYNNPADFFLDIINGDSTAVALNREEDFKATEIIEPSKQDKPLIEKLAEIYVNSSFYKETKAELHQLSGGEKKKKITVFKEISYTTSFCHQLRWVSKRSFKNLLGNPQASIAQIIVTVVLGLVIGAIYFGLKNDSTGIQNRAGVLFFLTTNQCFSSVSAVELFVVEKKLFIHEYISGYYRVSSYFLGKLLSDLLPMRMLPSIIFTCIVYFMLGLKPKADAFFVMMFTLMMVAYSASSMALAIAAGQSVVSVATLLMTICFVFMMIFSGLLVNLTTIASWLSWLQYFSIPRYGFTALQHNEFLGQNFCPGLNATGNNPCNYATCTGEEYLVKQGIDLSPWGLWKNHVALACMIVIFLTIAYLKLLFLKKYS

Compound	response in human plasma and urine samples [1]	apical transport of BCRP-mediated benzo(a)pyrene-3-sulphate (BCRP)
O=c1c(O)c(-c2ccc(O)cc2)oc2cc(O)cc(O)c12 [kaempferol]	little or no response	
O=c1c(O)c(-c2ccc(O)c(O)c2)oc2cc(O)cc(O)c12 [quercetin]	little or no response	increase
